Paper PMC9161616, “A first-in-human phase 1/2 study of FGF401 and combination of FGF401 with spartalizumab in patients with hepatocellular carcinoma or biomarker-selected solid tumors” (Journal of Experimental & Clinical Cancer Research : CR, 2022)
“Also recorded” adds a separate entry of the source. Where two headings read alike, the source gives them in different places.

Key:
[1] = Plasma pharmacokinetics of FGF401 (noncompartmental) and food effect; type: in vivo, human
Experimental: Pharmacokinetic endpoints included plasma concentrations and PK parameters of FGF401 and spartalizumab. Pharmacokinetic parameters were determined with noncompartmental method(s) using Phoenix WinNonlin version 6.4 or above (Pharsight Corporation, Mountain View, Califormia, USA). Immunogenicity of spartalizumab was assessed through presence and/or concentration of anti-drug (spartalizumab) antibodies (ADA). Food effect on FGF401 exposure was evaluated through plasma concentration of FGF401 and relevant PK parameters when dosing under fed condition. Safety of the food effect was assessed through incidence and severity of AEs and serious AEs (SAEs), including changes in laboratory values, vital signs, and ECGs when dosing under fed condition. The PK analyses and summary statistics were based on pharmacokinetic analysis set. Individual as well as mean concentration-time profiles were constructed using concentration data for spartalizumab and FGF401. Descriptive statistics for PK parameters included mean, standard deviation, coefficient of variation (CV%) mean, geometric mean, median, minimum, and maximum, with only the latter 3 for time to reach maximum concentration (Tmax) and additional 90% CI for accumulation ratio (Racc). Zero concentrations were not included in the geometric mean calculations. Missing concentrations or PK parameter values were not imputed.

FGF19-FGFR4 signaling = assay: Blood-based pharmacodynamic biomarkers (C4, total bile acids, FGF19, cholesterol); type: in vivo, human
Experimental: An immunohistochemistry (IHC) assay to detect FGF19 was used retrospectively on remnant samples and the association of FGF19 expression levels with best change in sum of diameters (SOD) for RECIST v1.1 in the single-agent was evaluated. […] FGF19 was quantified using a capture-ELISA assay from R&D System, Cat. nr. DF1900, with a LLOQ of 27.2 pg/mL and ULOQ of 1096.3 pg/mL. C4: 7α-Hydroxy-4-cholesten-3-one was determined using an LC-MS/MS method. The concentration of total bile acids were measured using the colorimetric diazyme’s enzymatic total bile acids assay.

[2] = human, plasma, oral, 80 mg, Cycle 1 day 8, 80 mg Fasted, n=6, geometric mean (CV%)
[3] = human, plasma, oral, 80 mg, Cycle 1 day 8, 80 mg Fed, n=4, geometric mean (CV%)
[4] = human, plasma, oral, 150 mg, Cycle 1 day 8, 150 mg Fasted, n=6, geometric mean (CV%)
[5] = low fat meals, 80 mg and 120 mg
[6] = most patients across the FGF401 dose levels

## COCCNc1cc(NC(=O)N2CCCc3cc(CN4CCN(C)CC4=O)c(C=O)nc32)ncc1C#N [FGF401, roblitinib]
[1]; 50 to 150 mg, fasted and fasted-fed combined
  dose proportionality of exposures (AUC and Cmax): increased slightly under dose proportion
[1]; C1D8 and C2D1 versus C1D1
  Racc: around 1
[1]; Cycle 1 day 8, 50 mg Fasted, n=6, geometric mean (CV%)
  Racc: 0.929 (12.1)
[1]; Cycle 1 day 8, 80 mg Fasted, n=5, geometric mean (CV%)
  Racc: 0.97 (14.3)
[1]; Cycle 1 day 8, 80 mg Fed, n=4, geometric mean (CV%)
  Racc: 1.04 (18.6)
[1]; Cycle 1 day 8, 120 mg Fasted, n=24, geometric mean (CV%)
  Racc: 1.03 (26.2)
[1]; Cycle 1 day 8, 120 mg Fed, n=15, geometric mean (CV%)
  Racc: 0.95 (22.5)
[1]; Cycle 1 day 8, 150 mg Fasted, n=6, geometric mean (CV%)
  Racc: 0.982 (33.3)
[1]; dosed with low-fat meals, 80 mg and 120 mg
  food effect: no food effect
[1]; even at 50 mg qd
  mean trough concentration at steady state (24 h post-dose) versus phospho-FGFR4 IC90: approximately above this IC90
[1]; human, plasma, oral, 50 mg, Cycle 1 day 8, 50 mg Fasted, n=6, geometric mean (CV%)
  AUC(0-inf): 3650 ng·h/mL
[1]; human, plasma, oral, 50 mg, Cycle 1 day 8, 50 mg Fasted, n=6, geometric mean (CV%), read-out: T1/2 (converted)
  half-life: 6.57 h
[1]; human, plasma, oral, 50 mg, Cycle 1 day 8, 50 mg Fasted, n=7, geometric mean (CV%)
  Cmax: 663 ng/mL
[1]; human, plasma, oral, 50 mg, Cycle 1 day 8, 50 mg Fasted, n=7, geometric mean (CV%), read-out: AUC0-24h
  AUC(0-t): 3650 ng·h/mL
[1]; human, plasma, oral, 50 mg, Cycle 1 day 8, 50 mg Fasted, n=7, geometric mean (CV%), read-out: AUClast
  AUC(0-t): 3460 ng·h/mL
[1]; human, plasma, oral, 50 mg, Cycle 1 day 8, 50 mg Fasted, n=7, median [min, max], read-out: Tmax
  Tmax: 1 h
[1]; [2]
  AUC(0-inf): 5130 ng·h/mL
  Cmax: 838 ng/mL
[1]; human, plasma, oral, 80 mg, Cycle 1 day 8, 80 mg Fasted, n=6, geometric mean (CV%), read-out: AUC0-24h
  AUC(0-t): 4850 ng·h/mL
[1]; human, plasma, oral, 80 mg, Cycle 1 day 8, 80 mg Fasted, n=6, geometric mean (CV%), read-out: AUClast
  AUC(0-t): 4840 ng·h/mL
[1]; human, plasma, oral, 80 mg, Cycle 1 day 8, 80 mg Fasted, n=6, geometric mean (CV%), read-out: T1/2 (converted)
  half-life: 6.08 h
[1]; human, plasma, oral, 80 mg, Cycle 1 day 8, 80 mg Fasted, n=6, median [min, max], read-out: Tmax
  Tmax: 1.01 h
[1]; [3]
  AUC(0-inf): 5550 ng·h/mL
  Cmax: 704 ng/mL
[1]; human, plasma, oral, 80 mg, Cycle 1 day 8, 80 mg Fed, n=4, geometric mean (CV%), read-out: AUC0-24h
  AUC(0-t): 5290 ng·h/mL
[1]; human, plasma, oral, 80 mg, Cycle 1 day 8, 80 mg Fed, n=4, geometric mean (CV%), read-out: AUClast
  AUC(0-t): 5280 ng·h/mL
[1]; human, plasma, oral, 80 mg, Cycle 1 day 8, 80 mg Fed, n=4, geometric mean (CV%), read-out: T1/2 (converted)
  half-life: 5.58 h
[1]; human, plasma, oral, 80 mg, Cycle 1 day 8, 80 mg Fed, n=4, median [min, max], read-out: Tmax
  Tmax: 2.5 h
[1]; human, plasma, oral, 120 mg, Cycle 1 day 8, 120 mg Fasted, n=18, geometric mean (CV%)
  AUC(0-inf): 7590 ng·h/mL
[1]; human, plasma, oral, 120 mg, Cycle 1 day 8, 120 mg Fasted, n=18, geometric mean (CV%), read-out: T1/2 (converted)
  half-life: 5.43 h
[1]; human, plasma, oral, 120 mg, Cycle 1 day 8, 120 mg Fasted, n=24, geometric mean (CV%)
  Cmax: 1120 ng/mL
[1]; human, plasma, oral, 120 mg, Cycle 1 day 8, 120 mg Fasted, n=24, geometric mean (CV%), read-out: AUC0-24h
  AUC(0-t): 6970 ng·h/mL
[1]; human, plasma, oral, 120 mg, Cycle 1 day 8, 120 mg Fasted, n=24, geometric mean (CV%), read-out: AUClast
  AUC(0-t): 6480 ng·h/mL
[1]; human, plasma, oral, 120 mg, Cycle 1 day 8, 120 mg Fasted, n=24, median [min, max], read-out: Tmax
  Tmax: 1.04 h
[1]; human, plasma, oral, 120 mg, Cycle 1 day 8, 120 mg Fed, n=15, geometric mean (CV%)
  AUC(0-inf): 7980 ng·h/mL
[1]; human, plasma, oral, 120 mg, Cycle 1 day 8, 120 mg Fed, n=15, geometric mean (CV%), read-out: T1/2 (converted)
  half-life: 5.58 h
[1]; human, plasma, oral, 120 mg, Cycle 1 day 8, 120 mg Fed, n=16, geometric mean (CV%), read-out: AUC0-24h
  AUC(0-t): 7330 ng·h/mL
[1]; human, plasma, oral, 120 mg, Cycle 1 day 8, 120 mg Fed, n=18, geometric mean (CV%)
  Cmax: 1060 ng/mL
[1]; human, plasma, oral, 120 mg, Cycle 1 day 8, 120 mg Fed, n=18, geometric mean (CV%), read-out: AUClast
  AUC(0-t): 7640 ng·h/mL
[1]; human, plasma, oral, 120 mg, Cycle 1 day 8, 120 mg Fed, n=18, median [min, max], read-out: Tmax
  Tmax: 3.01 h
[1]; [4]
  AUC(0-inf): 7850 ng·h/mL
  Cmax: 1070 ng/mL
[1]; human, plasma, oral, 150 mg, Cycle 1 day 8, 150 mg Fasted, n=6, geometric mean (CV%), read-out: AUC0-24h
  AUC(0-t): 7510 ng·h/mL
[1]; human, plasma, oral, 150 mg, Cycle 1 day 8, 150 mg Fasted, n=6, geometric mean (CV%), read-out: AUClast
  AUC(0-t): 7550 ng·h/mL
[1]; human, plasma, oral, 150 mg, Cycle 1 day 8, 150 mg Fasted, n=6, geometric mean (CV%), read-out: T1/2 (converted)
  half-life: 5.24 h
[1]; human, plasma, oral, 150 mg, Cycle 1 day 8, 150 mg Fasted, n=6, median [min, max], read-out: Tmax
  Tmax: 2.42 h
[1]; human, plasma, oral, cycle 1 day 1, read-out: median Tmax across phase 1 treatment groups
  Tmax: 1 to 2.98 h
[1]; human, plasma, oral, cycle 1 day 8, read-out: median Tmax across phase 1 treatment groups
  Tmax: 1 to 3.01 h
[1]; human, plasma, oral, cycle 2 day 1, read-out: median Tmax across phase 1 treatment groups
  Tmax: 1.01 to 3.02 h
[1]; human, plasma, oral, over all treatments and during all periods, read-out: terminal half-life (T1/2)
  half-life: 4.91 to 6.57 h
[1]; human, plasma, oral, 120 mg fasted, C1D8, geometric mean, CV 38.7%, read-out: AUCtau at steady state
  AUC: 6970 ng·h/mL
[1]; in vivo
  overall interpatient variability of drug exposure: moderate
[1]; [5]
  food effect on Tmax: slightly delayed Tmax
  food effect on half-life: no effect on half-life
[1]; qd dosing
  drug accumulation following repeated dosing: no drug accumulation
FGF19-FGFR4 signaling; all doses tested
  dose-response analyses with the pharmacodynamic biomarkers: did not identify any associations; also recorded: without a clear dose response
FGF19-FGFR4 signaling; [6]
  change in C4 level: Increase; also recorded: treatment-induced elevation
  change in total bile acid level: Increase; also recorded: treatment-induced elevation
FGF19-FGFR4 signaling; single-agent arm
  change in circulating FGF19: Increase
  change in total cholesterol: decrease
